According to publication PMC4922569, “Antifibrotic Effects of the Dual CCR2/CCR5 Antagonist Cenicriviroc in Animal Models of Liver and Kidney Fibrosis” (PLoS ONE, 2016):
Counter-ions that a name gives are not always drawn. Like-named read-outs stand apart in the source and are kept apart here.

Experiments:
[1] = test system: CCR5; details: cited from earlier work
[2] = design: method as in PMID 21317794, PMID 21486960, PMID 16251299; details: in humans; cited from earlier work
[3] = test system: CCR2 on monocytes; design: method as in earlier work; details: at 6 nmol/L; human PBMC ex vivo; cited from earlier work
[4] = test system: hepatic fibrosis scores (APRI, FIB-4, ELF); details: cited from earlier work
[5] = in rats; cited from earlier work
[6] = Body and kidney weights and clinical condition, UUO model; format: in vivo; details: for Contralateral kidney weight / Final body weight / Obstructed kidney weight: UUO model, average±SEM
Method: Male CD-1 mice (n = 51; 7–8 weeks of age; Charles River Laboratories, USA) were allocated to weight-matched treatment groups on Day -1 (1 day prior to either sham [one group] or permanent right UUO surgery [five groups] via aseptic laparotomy). From Days -1 to 4, mice received phosphate-buffered saline (PBS) IP QD, apart from a positive-control group, which received 1D11 (anti-TGF-beta1 antibody) 3 mg/kg IP QD. From Days 0 to 5, mice received vehicle control (sham surgery, UUO-control and UUO+positive-control groups) or CVC 7 mg/kg/day (CVC7), CVC20 or CVC100 PO BID (S1 Table). […] Study endpoints included: body and kidney weights, mRNA expression (TGF-beta, connective tissue growth factor, MCP-1, alpha-SMA, collagen 1a1, fibronectin-1 and collagen 3a1), extracellular matrix protein in renal cortical tissue (hydroxyproline content) and histological analyses. Blood and tissue samples were collected from anesthetized mice 4 hours post-dose on Day 5, prior to sacrifice. A mid-transverse section of the right obstructed kidney was collected for histological analysis.
Body weight (measured before and during treatment) and sacrificed animal body and liver/kidney/spleen weights were recorded.

[7] = test system: CCR5 on CD4+ and CD8+ T-cells; design: method as in earlier work; details: human PBMC ex vivo, cited from earlier work
[8] = in mice; cited from earlier work
[9] = between Baseline and Week 24, maintained at Week 48
[10] = CVC100 PO BID, UUO surgery, group terminated due to poor clinical condition

Which results are given for CCCCOCCOc1ccc(-c2ccc3c(c2)/C=C(/C(=O)Nc2ccc([S@@+]([O-])Cc4cncn4CCC)cc2)CCCN3CC(C)C)cc1 [CVC, cenicriviroc mesylate]?
Occupancy for CCR5 (spleen) in proinflammatory monocytes ([1]; CVC 250 nM, murine cryopreserved PBMC ex vivo): 87%; CCR5 occupancy ([1]; CVC concentrations of 250 nmol/L or higher, mouse monocytes and macrophages ex vivo): > 87%; Plasma half-life [2]: 30 to 40 h; Receptor occupancy for CCR2 on monocytes [3]: ~ 98%; Enhanced liver fibrosis (ELF) scores ([4]; Week 48, p < 0.0001): significant reduction; Decrease in proportion of subjects with APRI score ≥0.5 [4, 9]: 75%; Decrease in proportion of subjects with FIB-4 score ≥1.45 [4, 9]: 73%; Half-life [5]: 4 to 5 h; Decrease in body weight vs UUO control ([6]; CVC20, Day 5, p < 0.05): 5%; Animals died prior to end of study [6, 10]: 6/9; Animals euthanized prior to end of study [6, 10]: 3/9; Contralateral kidney weight ([6]; CVC 7 mg/kg/day): 221.0 ± 10.1 mg; Final body weight ([6]; CVC 7 mg/kg/day): 26.3 ± 0.5 g; Obstructed kidney weight ([6]; CVC 7 mg/kg/day): 232.0 ± 11.9 mg; Contralateral kidney weight ([6]; CVC 20 mg/kg/day): 202.4 ± 6.1 mg; Final body weight ([6]; CVC 20 mg/kg/day): 25.7 ± 0.4 g; Obstructed kidney weight ([6]; CVC 20 mg/kg/day): 217.0 ± 6.7 mg; Receptor occupancy for CCR5 on CD8+ T-cells ([7]; at 2.3 nmol/L): ≥ 90%; Receptor occupancy for CCR5 on CD4+ T-cells ([7]; at 3.1 nmol/L): ≥ 90%; Half-life [8]: ~ 2 hours
